Measurements as given in patent publication US12331040B2 (Karyopharm Therapeutics Inc., priority 2013, dated 2025).
Read-outs that look alike come from different tables or passages of the source.

How the values were obtained:
Assay in all cases: MTT cell proliferation assay
Type in all cases: cell-based
3T3 cells = conditions: Mus musculus, NIH3T3, approximately 64-72 hours incubation
Summary of the method: (§1)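 5,000-10,000 cells/well, overnight attach; 8 conc., 1 nM–30 μM; MTT ~4 h; formazan solubilized, OD 490 nm; % inhibition = (1−(ODo/OD))×100 vs neg. control; mostly duplicate, mean±SE.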

MS751 cells = conditions: Homo sapiens, MS751, MS751 cells, approximately 64-72 hours incubation
Summary of the method: as §1

Z138 cells = conditions: Homo sapiens, Z-138, Z138 cells, approximately 64-72 hours incubation
Summary of the method: as §1

[1] = read-out: MTT Assay IC50 MS-751
[2] = read-out: MTT Assay IC50, MS-751
[3] = read-out: MTT Assay IC50, Z-138

COc1cc(-c2ccc(S(=O)(=O)N3CCOCC3)cc2)cc2cc(CNC(=O)/C=C/c3ccc(N)nc3)oc12 [Compound 635, (E)-3-(6-aminopyridin-3-yl)-N-((7-methoxy-5-(4-(morpholinosulfonyl)phenyl)benzofuran-2-yl)methyl)acrylamide]
IC50 (3T3 cells; read-out: MTT Assay IC50 3T3): 0.1 to 5 µM | IC50 (MS751 cells; [1]): < 0.1 µM | IC50 (Z138 cells; read-out: MTT Assay IC50 Z-138): < 0.1 µM

Nc1ccc(/C=C/C(=O)NCc2cc3cc(-c4ccc(C(=O)N5CCC(F)(F)CC5)cn4)cc(-c4cccnc4)c3o2)cn1 [Compound 669, (E)-3-(6-aminopyridin-3-yl)-N-((5-(5-(4,4-difluoropiperidine-1-carbonyl)pyridin-2-yl)-7-(pyridin-3-yl)benzofuran-2-yl)methyl)acrylamide]
IC50 (3T3 cells; read-out: MTT Assay IC50, 3T3): 0.1 to 5 µM | IC50 (MS751 cells; [2]): < 0.1 µM | IC50 (Z138 cells; [3]): < 0.1 µM

CC(C)(NC(=O)/C=C/c1ccc(N)nc1)c1cc2cc(-c3ccc(C(=O)N4CCOCC4)cc3)cc(Cl)c2o1 [Compound 512, (E)-3-(6-aminopyridin-3-yl)-N-(2-(7-chloro-5-(4-(morpholine-4-carbonyl)phenyl)benzofuran-2-yl)propan-2-yl)acrylamide]
IC50 (3T3 cells; read-out: MTT Assay IC50 3T3): > 10 µM | IC50 (MS751 cells; [1]): > 10 µM | IC50 (Z138 cells; read-out: MTT Assay IC50 Z-138): > 10 µM

Nc1ccc(/C=C/C(=O)NCc2cc3cc(-c4cncc(C(=O)N5CCOCC5)c4)cc(Cl)c3o2)cn1 [Compound 534, (E)-3-(6-aminopyridin-3-yl)-N-((7-chloro-5-(5-(morpholine-4-carbonyl)pyridin-3-yl)benzofuran-2-yl)methyl)acrylamide]
IC50 (3T3 cells; read-out: MTT Assay IC50 3T3): > 10 µM | IC50 (MS751 cells; [1]): 0.1 to 5 µM | IC50 (Z138 cells; read-out: MTT Assay IC50 Z-138): 0.1 to 5 µM

Nc1ccc(/C=C/C(=O)NCc2cc3cc(-c4ccc(S(=O)(=O)N5CCC(F)(F)CC5)cc4)cc(C(F)(F)F)c3o2)cn1 [Compound 679, (E)-3-(6-aminopyridin-3-yl)-N-((5-(4-((4,4-difluoropiperidin-1-yl)sulfonyl)phenyl)-7-(trifluoromethyl)benzofuran-2-yl)methyl)acrylamide]
IC50 (3T3 cells; read-out: MTT Assay IC50, 3T3): 0.1 to 5 µM | IC50 (MS751 cells; [2]): 0.1 to 5 µM | IC50 (Z138 cells; [3]): 0.1 to 5 µM

Nc1ccc(/C=C/C(=O)NCc2nc3cc(-c4ccc(C(=O)N5CCOCC5)cc4)cc(Cl)c3o2)cn1 [Compound 501, (E)-3-(6-aminopyridin-3-yl)-N-((7-chloro-5-(4-(morpholine-4-carbonyl)phenyl)benzo[d]oxazol-2-yl)methyl)acrylamide]
IC50 (3T3 cells; read-out: MTT Assay IC50 3T3): > 10 µM | IC50 (MS751 cells; [1]): 0.1 to 5 µM | IC50 (Z138 cells; read-out: MTT Assay IC50 Z-138): 0.1 to 5 µM

Cc1noc(C)c1-c1cc(-c2ccc(F)cc2)c2oc(CNC(=O)/C=C/c3ccc(N)nc3)cc2c1 [Compound 694, (E)-3-(6-aminopyridin-3-yl)-N-((5-(3,5-dimethylisoxazol-4-yl)-7-(4-fluorophenyl)benzofuran-2-yl)methyl)acrylamide]
IC50 (3T3 cells; read-out: MTT Assay IC50, 3T3): > 10 µM | IC50 (MS751 cells; [2]): 0.1 to 5 µM | IC50 (Z138 cells; [3]): < 0.1 µM

Nc1ccc(/C=C/C(=O)NCc2cc3cc(-c4ccc(C(=O)N5CC6CC5CO6)cn4)cc(C(F)(F)F)c3o2)cn1 (stereo not drawn) [Compound 633, (E)-N-((5-(5-(2-oxa-5-azabicyclo[2.2.1]heptane-5-carbonyl)pyridin-2-yl)-7-(trifluoromethyl)benzofuran-2-yl)methyl)-3-(6-aminopyridin-3-yl)acrylamide]
IC50 (3T3 cells; read-out: MTT Assay IC50 3T3): > 10 µM | IC50 (MS751 cells; [1]): 0.1 to 5 µM | IC50 (Z138 cells; read-out: MTT Assay IC50 Z-138): 0.1 to 5 µM

Nc1ccc(/C=C/C(=O)NCc2cc3cc(-c4ccc(C(=O)N5CCC(F)(F)CC5)cn4)cc(-c4ccc5cnccc5c4)c3o2)cn1 [Compound 672, (E)-3-(6-aminopyridin-3-yl)-N-((5-(5-(4,4-difluoropiperidine-1-carbonyl)pyridin-2-yl)-7-(isoquinolin-6-yl)benzofuran-2-yl)methyl)acrylamide]
IC50 (3T3 cells; read-out: MTT Assay IC50, 3T3): > 10 µM | IC50 (MS751 cells; [2]): 0.1 to 5 µM | IC50 (Z138 cells; [3]): 0.1 to 5 µM

CN(C)c1ccc(/C=C/C(=O)NCc2cc3cc(-c4ccc(C(=O)N5CCOCC5)cc4)cc(Cl)c3o2)cn1 [Compound 551, (E)-N-((7-Chloro-5-(4-(morpholine-4-carbonyl)phenyl)benzofuran-2-yl)methyl)-3-(6-(dimethylamino)pyridin-3-yl)acrylamide]
IC50 (3T3 cells; read-out: MTT Assay IC50 3T3): > 10 µM | IC50 (MS751 cells; [1]): > 10 µM | IC50 (Z138 cells; read-out: MTT Assay IC50 Z-138): > 10 µM
